{"source": "paper PMC12246728", "about": "“Efficient Oxidative Polymerization of Hydroxytyrosol Using Horseradish Peroxidase Immobilized on a Magnetic Silica‐Coated Nanocatalyst” (Global Challenges, 2025)", "system": "T1, horseradish peroxidase (HRP)", "T1 construct": "gene PRXC1A", "test": "initial rate by absorbance at […] nm, Lineweaver-Burk", "format": "biochemical", "settings": "free enzyme; 1 mM H2O2, pH 7.0, 25 °C; HXT 0.5-5.0 mM", "data": [{"smiles": "OCCc1ccc(O)c(O)c1", "note": "[HXT, hydroxytyrosol]", "values": [{"measurement": "Km", "result": 4.45, "unit": "mM"}]}]}
